Test results as given in US20230406865A1, “CRYSTAL FORM OF FREE BASE OF INHIBITOR CONTAINING BICYCLIC RING DERIVATIVE AND PREPARATION METHOD AND APPLICATION OF CRYSTAL FORM” (SHANGHAI HANSOH BIOMEDICAL CO., LTD., priority 2020, published 2023).

Key:
[1] = test system: TT cells (MTC, RET C634W); assay: Inhibition of proliferation of TT cells (CellTiter-Glo, 72 h); type: cell-based; conditions: Homo sapiens
In short: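 TT cells seeded overnight, then exposed to compound dilutions for 72 h at 37 °C, 5% CO2, with a solvent control. Viability read by CellTiter-Glo luminescence; IC50 from nonlinear regression of inhibition rate versus concentration.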

Ba/F3 KIF5B-RET cells = biological target: T1, Ba/F3 KIF5B-RET cells (Homo sapiens, UniProt P07949); assay: Inhibition of proliferation of Ba/F3 KIF5B-RET cells (CellTiter-Glo); type: cell-based; conditions: 72 to 144 hours
T1 construct: fused on or other part: P33176 (Kinesin-1 heavy chain)
Method: When Ba/F3 KIF5B-RET cells were cultured to the appropriate cell density, cells were collected, and the cells were adjusted to the appropriate cell concentration using complete medium, and the cell suspension was spread in a 96-well plate, 90 μL per well, and placed in the wall of a 37° C., 5% CO2 incubator overnight; compound solutions of different concentrations were prepared using DMSO and culture medium; a solvent control was set, and the compound solution was added to a 96-well plate with […] at 37° C. in a 5% CO2 incubator for 72 to 144 hours, CellTiter-Glo solution was added thereto and mixed well by shaking, incubated for 10 minutes in the dark, and read by BioTek Synergy H1 microplate reader.
The IC50 values were obtained by using the luminescence signal values to calculate the inhibition rate, the concentrations and the inhibition rates were fitted to a nonlinear regression curve using Graphpad Prism software.

KDR kinase = biological target: T2, KDR kinase (Homo sapiens, UniProt P35968); assay: HTRF kinase activity inhibition, KDR; type: biochemical; conditions: for IC50: HTRF, ATP at Km; for Ratio (KDR/RET): KDR IC50 / RET IC50
T2 construct: purchased Carna 08-191
From the text: 2.2 Experimental Reagents: • KDR kinase was purchased from Carna Company, and the article number was 08-191; • HTRF KinEASE-TK kit was purchased from Cisbio Company, and the article number was 62TK0PEC; • ATP was purchased from Thermofisher Company, and the article number was PV3227; • 384-well plate was purchased from PerkinElmer Company, and the article number was 6007290.
In this experiment, the homogeneous time-resolved fluorescence (HTRF) method was used for the detection of compounds on KDR kinase activity.

RET kinase = biological target: T3, RET kinase (Homo sapiens, UniProt P07949); assay: HTRF kinase activity inhibition, RET wild-type; type: biochemical; conditions: ATP at Km
T3 construct: purchased Carna 08-159
From the text: 2.2 Experimental Reagents: • RET enzyme was purchased from Carna Company, and the article number was 08-159; • RET M918T enzyme was purchased from Carna Company, and the article number was 08-508; • KIF5B-RET was purchased from SignalChem Company, the article number was R02-19FG-05; • CCDC6-RET was purchased from SignalChem Company, the article number was R02-19BG-05; • RET V804M enzyme was purchased from Thermofisher Company, and the article number was PV6223; • RET V804L enzyme was purchased from Thermofisher Company, and the article number was PV4397; • HTRF KinEASE-TK kit was purchased from Cisbio Company, and the article number was 62TK0PEC; • ATP was purchased from Thermofisher Company, and the article number was PV3227; • 384-well plate was purchased from PerkinElmer Company, and the article number was 6007290.
In this experiment, a homogeneous time-resolved fluorescence (HTRF) method was used for the detection of compounds on RET kinase activity.

T2 sequence (P35968 20-1356): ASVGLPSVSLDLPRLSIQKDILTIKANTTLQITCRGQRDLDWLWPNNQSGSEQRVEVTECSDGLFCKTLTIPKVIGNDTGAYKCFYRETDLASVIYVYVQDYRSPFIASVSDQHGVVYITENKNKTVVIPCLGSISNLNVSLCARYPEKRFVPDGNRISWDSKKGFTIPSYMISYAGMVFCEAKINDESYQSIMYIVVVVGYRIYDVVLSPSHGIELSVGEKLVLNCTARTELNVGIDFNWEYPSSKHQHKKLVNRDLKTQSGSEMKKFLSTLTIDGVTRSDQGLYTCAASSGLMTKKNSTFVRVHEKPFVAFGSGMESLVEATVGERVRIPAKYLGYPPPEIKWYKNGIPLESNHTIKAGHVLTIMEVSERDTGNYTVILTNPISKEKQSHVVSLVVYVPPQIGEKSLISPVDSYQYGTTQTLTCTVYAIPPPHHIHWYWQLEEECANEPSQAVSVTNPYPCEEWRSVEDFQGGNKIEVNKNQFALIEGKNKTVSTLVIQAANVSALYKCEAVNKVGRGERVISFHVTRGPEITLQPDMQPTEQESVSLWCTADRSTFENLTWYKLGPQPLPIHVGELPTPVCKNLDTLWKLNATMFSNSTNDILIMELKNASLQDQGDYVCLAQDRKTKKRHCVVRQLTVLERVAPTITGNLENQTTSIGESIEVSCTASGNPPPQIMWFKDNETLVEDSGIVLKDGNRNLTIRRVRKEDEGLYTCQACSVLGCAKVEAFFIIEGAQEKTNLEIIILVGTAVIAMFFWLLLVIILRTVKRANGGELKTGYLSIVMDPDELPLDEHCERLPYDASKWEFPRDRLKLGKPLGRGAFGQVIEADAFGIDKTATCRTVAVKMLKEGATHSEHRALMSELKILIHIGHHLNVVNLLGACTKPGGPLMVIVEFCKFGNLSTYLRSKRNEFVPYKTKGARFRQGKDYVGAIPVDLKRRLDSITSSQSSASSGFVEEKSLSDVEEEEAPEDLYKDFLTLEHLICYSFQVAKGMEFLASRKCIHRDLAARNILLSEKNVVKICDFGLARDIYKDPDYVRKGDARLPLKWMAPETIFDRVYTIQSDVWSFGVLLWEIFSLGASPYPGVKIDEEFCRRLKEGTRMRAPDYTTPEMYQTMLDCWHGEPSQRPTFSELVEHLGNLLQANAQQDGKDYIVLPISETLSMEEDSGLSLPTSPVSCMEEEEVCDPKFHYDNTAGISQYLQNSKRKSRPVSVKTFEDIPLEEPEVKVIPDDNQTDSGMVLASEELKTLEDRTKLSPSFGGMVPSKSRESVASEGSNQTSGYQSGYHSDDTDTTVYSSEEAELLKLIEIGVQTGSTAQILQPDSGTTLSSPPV
T1 sequence (P07949 whole entry, change not shown, the tested form may be a part): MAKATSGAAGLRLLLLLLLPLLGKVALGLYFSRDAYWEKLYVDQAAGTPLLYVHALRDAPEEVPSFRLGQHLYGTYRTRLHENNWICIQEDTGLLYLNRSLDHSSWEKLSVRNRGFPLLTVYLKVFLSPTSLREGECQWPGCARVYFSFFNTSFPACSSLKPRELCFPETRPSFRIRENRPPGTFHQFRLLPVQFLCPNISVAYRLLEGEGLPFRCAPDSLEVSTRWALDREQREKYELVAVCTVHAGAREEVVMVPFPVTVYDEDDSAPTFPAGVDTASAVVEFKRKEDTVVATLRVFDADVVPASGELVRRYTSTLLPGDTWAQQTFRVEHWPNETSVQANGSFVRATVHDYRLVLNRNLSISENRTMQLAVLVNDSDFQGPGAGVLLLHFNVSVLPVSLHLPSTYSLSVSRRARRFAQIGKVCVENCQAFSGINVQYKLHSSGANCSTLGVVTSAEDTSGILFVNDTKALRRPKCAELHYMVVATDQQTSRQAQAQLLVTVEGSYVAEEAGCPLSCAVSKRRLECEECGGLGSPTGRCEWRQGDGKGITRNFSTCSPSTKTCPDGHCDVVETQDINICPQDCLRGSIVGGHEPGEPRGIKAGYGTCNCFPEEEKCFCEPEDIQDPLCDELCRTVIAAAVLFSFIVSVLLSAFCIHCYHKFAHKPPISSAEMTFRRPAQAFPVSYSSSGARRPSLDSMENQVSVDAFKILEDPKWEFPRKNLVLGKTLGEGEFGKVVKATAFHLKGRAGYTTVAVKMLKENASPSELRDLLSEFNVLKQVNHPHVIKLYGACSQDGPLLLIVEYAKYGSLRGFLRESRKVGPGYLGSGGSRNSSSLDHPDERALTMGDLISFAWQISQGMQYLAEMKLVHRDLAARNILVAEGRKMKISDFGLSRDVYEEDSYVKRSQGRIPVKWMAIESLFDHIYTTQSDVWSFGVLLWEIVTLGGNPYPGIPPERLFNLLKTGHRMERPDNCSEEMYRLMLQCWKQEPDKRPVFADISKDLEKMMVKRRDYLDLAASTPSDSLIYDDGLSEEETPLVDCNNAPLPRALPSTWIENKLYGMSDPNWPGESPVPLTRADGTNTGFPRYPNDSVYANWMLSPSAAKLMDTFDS
T3 sequence (P07949 29-1114): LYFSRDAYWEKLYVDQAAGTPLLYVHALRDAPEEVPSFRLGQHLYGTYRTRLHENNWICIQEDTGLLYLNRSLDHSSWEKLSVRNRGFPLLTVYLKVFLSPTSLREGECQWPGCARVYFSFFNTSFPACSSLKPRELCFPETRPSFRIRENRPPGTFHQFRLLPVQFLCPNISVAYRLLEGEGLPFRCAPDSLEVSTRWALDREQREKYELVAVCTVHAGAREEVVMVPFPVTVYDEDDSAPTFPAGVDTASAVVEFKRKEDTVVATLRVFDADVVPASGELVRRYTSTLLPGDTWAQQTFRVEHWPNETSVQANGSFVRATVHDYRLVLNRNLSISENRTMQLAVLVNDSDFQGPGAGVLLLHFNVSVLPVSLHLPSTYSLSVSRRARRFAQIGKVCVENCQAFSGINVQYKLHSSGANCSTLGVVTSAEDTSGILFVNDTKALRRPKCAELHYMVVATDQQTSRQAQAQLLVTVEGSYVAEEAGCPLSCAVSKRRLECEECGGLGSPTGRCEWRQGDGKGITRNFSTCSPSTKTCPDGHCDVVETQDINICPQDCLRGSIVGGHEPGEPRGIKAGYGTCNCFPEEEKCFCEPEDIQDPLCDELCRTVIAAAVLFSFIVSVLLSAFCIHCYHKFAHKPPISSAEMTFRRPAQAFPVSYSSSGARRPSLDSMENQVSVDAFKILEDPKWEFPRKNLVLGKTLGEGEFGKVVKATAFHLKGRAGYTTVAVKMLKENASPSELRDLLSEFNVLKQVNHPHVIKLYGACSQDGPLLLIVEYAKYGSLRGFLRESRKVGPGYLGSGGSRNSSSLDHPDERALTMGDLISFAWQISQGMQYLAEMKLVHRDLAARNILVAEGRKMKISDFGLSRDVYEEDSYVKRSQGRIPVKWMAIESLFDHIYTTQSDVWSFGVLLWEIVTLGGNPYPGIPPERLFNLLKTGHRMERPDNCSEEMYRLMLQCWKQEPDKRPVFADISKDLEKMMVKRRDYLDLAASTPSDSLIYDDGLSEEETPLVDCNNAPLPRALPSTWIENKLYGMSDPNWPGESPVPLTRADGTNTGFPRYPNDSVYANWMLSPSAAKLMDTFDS

SMILES	IC50 [1]	IC50 (Ba/F3 KIF5B-RET cells)	IC50 (KDR kinase)	Ratio (KDR/RET) (KDR kinase)	IC50 (RET kinase)
COc1ccc(CN2C3CC2CN(c2ccc(-c4cc(OCC56CC(C(N)=O)(C5)C6)cn5ncc(C#N)c45)cn2)C3)cn1 [Embodiment 66, 3-(((3-Cyano-4-(6-(6-((6-methoxypyridin-3-yl)methyl)-3,6-diazabicyclo[3.1.1]heptan-3-yl)pyridin-3-yl)pyrazolo[1,5-a]pyridin-6-yl)oxy)methyl)bicyclo[1.1.1]pentane-1-carboxamide]	5.18 nM	14.8 nM	3 nM	12	0.25 nM
COc1ccc(CN2C3CC2CN(c2ccc(-c4cc(OCC[S+](C)[O-])cn5ncc(C#N)c45)cn2)C3)cn1 (centres unmarked) [Embodiment 1, 4-(6-(6-((6-Methoxypyridin-3-yl)methyl)-3,6-diazabicyclo[3.1.1]heptan-3-yl)pyridin-3-yl)-6-(2-(methylsulfinyl)ethoxy)pyrazolo[1,5-a]pyridine-3-carbonitrile]	11.5 nM	24.6 nM	28 nM	59	0.47 nM
COc1ncc(CN2C3CC2CN(c2ccc(-c4cc(OCC5CC(C)(O)C5)cn5ncc(C#N)c45)cn2)C3)cc1F (stereo not drawn) [Embodiment 72, 4-(6-(6-((5-Fluoro-6-methoxypyridin-3-yl)methyl)-3,6-diazabicyclo[3.1.1]heptan-3-yl)pyridin-3-yl)-6-((cis-3-hydroxy-3-methylcyclobutyl)methoxy)pyrazolo[1,5-a]pyridine-3-carbonitrile]	13.9 nM	8.59 nM	7.4 nM	20	0.37 nM
CC1(O)CN(c2cc(-c3ccc(N4CCC(C)(NC(=O)c5ncccc5Cl)CC4)nc3)c3c(C#N)cnn3c2)C1 [Embodiment 95, 3-Chloro-N-(1-(5-(3-cyano-6-(3-hydroxy-3-methylazetidin-1-yl)pyrazolo[1,5-a]pyridin-4-yl)pyridin-2-yl)-4-methylpiperidin-4-yl)picolinamide]	15 nM	22.5 nM	24 nM	24	1 nM
COc1ccc(CN2C3CC2CN(c2ccc(-c4cc(C#C[C@@H](C)O)cn5ncc(C#N)c45)cn2)C3)cn1 [Embodiment 22, 6-((R)-3-Hydroxybut-1-yn-1-yl)-4-(6-(6-((6-methoxypyridin-3-yl)methyl)-3,6-diazabicyclo[3.1.1]heptan-3-yl)pyridin-3-yl)pyrazolo[1,5-a]pyridine-3-carbonitrile]	20.7 nM	16.9 nM	24 nM	75	0.32 nM
COc1ccc(CN2C3CC2CN(c2ccc(-c4cc(OCC56CC(C#N)(C5)C6)cn5ncc(C#N)c45)cn2)C3)cn1 [Embodiment 53, 6-((3-Cyanobicyclo[1.1.1]pentan-1-yl)methoxy)-4-(6-(6-((6-methoxypyridin-3-yl)methyl)-3,6-diazabicyclo[3.1.1]heptan-3-yl)pyridin-3-yl)pyrazolo[1,5-a]pyridine-3-carbonitrile]	24.7 nM	30.6 nM	21.6 nM	27	0.8 nM
CNC(=O)C12CC(COc3cc(-c4ccc(N5CC6CC(C5)N6Cc5ccc(OC)nc5)nc4)c4c(C#N)cnn4c3)(C1)C2 [Embodiment 67, 3-(((3-Cyano-4-(6-(6-((6-methoxypyridin-3-yl)methyl)-3,6-diazabicyclo[3.1.1]heptan-3-yl)pyridin-3-yl)pyrazolo[1,5-a]pyridin-6-yl)oxy)methyl)-N-methylbicyclo[1.1.1]pentane-1-carboxamide]	6.84 nM	5.33 nM	4 nM	16	0.25 nM
